Tests used:
P. aeruginosa = test: Growth of primary pathogen alone on antibiotic-supplemented Columbia agar; assay type: cell-based; conditions: Columbia agar with erythrocytes 5%, 24 h at 37 C
Experimental: Four sputum samples from patients with lung infections were used. Pure bacterial culture of each microorganisms was obtained by routine microbiological methods.
In this case this antibiotic at MIC of 16 ug/mL was used in the following studies. PP alone, or Microbial Modulators (MM) alone or the original sputum were plated on the wells of 24 well plate filled with nutrient Columbia agar supplemented with erythrocytes 5% and supplemented with antibiotics taken as MIC determined against PP, but not more than 16 μg/mL and incubated 24 h at 37 C.

R. dentocariosa = test: Growth of microbial modulator alone on antibiotic-supplemented Columbia agar; assay type: cell-based; conditions: Bacterial set #2; Cefepime (16 μg/mL); Columbia agar with erythrocytes 5%, 24 h at 37 C
A. ursingii = test: as above; assay type: cell-based; conditions: Bacterial set #2; Cefepime (16 μg/mL); Columbia agar with erythrocytes 5%, 24 h at 37 C
B. pumilus = test: as above; assay type: cell-based; conditions: Bacterial set #2; Cefepime (16 μg/mL); Columbia agar with erythrocytes 5%, 24 h at 37 C
[1] = system: MIX—PP +BM (P. aeruginosa with microbial modulators); test: Growth of mix PP + MM (original sputum) on antibiotic-supplemented Columbia agar; assay type: cell-based; conditions: Columbia agar with erythrocytes 5%, 24 h at 37 C
[2] = system: bacteria of sputum from patients with lung diseases; test: Standard antibiotic susceptibility study using the microbroth dilution method (Algorithm #3); assay type: cell-based; further: key: '+'—presence of bacterial growth, antibiotic ineffective; '−'—absence of bacterial growth, antibiotic effective
Description: Algorithm #3—Standard antibiotic susceptibility study using the microbroth dilution method.

[3] = system: bacteria of the biosample (persisters); test: Neutropenic mice instilled with biosample and treated with antibiotic for 72 h, microbial growth in organs and blood; assay type: in vivo; conditions: neutropenic C57BL/6 mice treated for 72 h, agar with 100 ug/mL of the antibiotic
Experimental: Next, we confirmed that antibiotics selected with proposed algorithm are effective. Adult C57BL/6 mice were rendered neutropenic by injecting cyclophosphamide subcutaneously 4 days before infection (150 mg/kg of body weight), 1 day before infection (100 mg/kg), and 1 day after infection (100 mg/kg). Mice were anesthetized with 2% isoflurane and orally instilled with biosample (stored at +4 C). Briefly, nares were blocked, and mice aspirated 50 μL of the biosample into the lungs while being held vertically for 60 s.

[4] = system: S.aureus (PP) and MM in sputum from children with pneumonia; test: Degree of eradication of PP and MM on Columbia agar with antibiotic at concentrations achievable at the site of infection; assay type: cell-based; parameters: key to Degree of primary pathogen eradication, evaluation of ABEPP: % of primary pathogen (PP) eliminated
Experimental: We next tried to select antibiotics based on building a probability model. Antibiotic efficacy was evaluated based on a novel parameters: • ABEPPMM100—antibiotic concentration that is required for the elimination of 100% “complex” PP+MM. • ABEPPMM99—antibiotic concentration that is required for the elimination of 99% “complex” PP+MM.
ABEPPMM90—antibiotic concentration that is required for the elimination of 90% “complex” PP+MM.
ABEPPMM50—antibiotic concentration that is required for the elimination of 50% “complex” PP+MM.
ABEPP100—antibiotic concentration that affecting on “complex” PP+MM is required for the elimination of 100% PP.
ABEPP99—antibiotic concentration that affecting on “complex” PP+MM is required for the elimination of 99% PP.
ABEPP90—antibiotic concentration that affecting on “complex” PP+MM is required for the elimination of 90% PP.
ABEPP50—antibiotic concentration that affecting on “complex” PP+MM is required for the elimination of 50% PP.
We used sputum from children with pneumonia, with S.aureus as confirmed PP. Patient 1—child • Patient 2—child • Patient 3—child

[5] = cited from earlier work
S. anginosus = test: Growth of microbial modulator alone on antibiotic-supplemented Columbia agar; assay type: cell-based; conditions: Bacterial set #1; Meropenem (16 μg/mL); Columbia agar with erythrocytes 5%, 24 h at 37 C
B. sonorensis = test: as above; assay type: cell-based; conditions: Bacterial set #1; Meropenem (16 μg/mL); Columbia agar with erythrocytes 5%, 24 h at 37 C
E. coli = test: as above; assay type: cell-based; conditions: Bacterial set #1; Meropenem (16 μg/mL); Columbia agar with erythrocytes 5%, 24 h at 37 C
[6] = Bacterial set #2, Cefepime (16 μg/mL)
[7] = Patient 1, C0-1 h, 24 h of growth
[8] = Patient 1, C0-2 h, 24 h of growth
[9] = Patient 1, C0-3 h, 24 h of growth
[10] = Patient 1, C0-4 h, 24 h of growth
[11] = Patient 1, C0-6 h, 24 h of growth
[12] = Patient 1, C0-8 h, 24 h of growth
[13] = Patient 1, C0-12 h, 24 h of growth
[14] = Patient 1, C0-24 h, 24 h of growth
[15] = Patient 1, C2-3 h, 24 h of growth
[16] = Patient 1, C3-4 h, 24 h of growth
[17] = Patient 1, C4-6 h, 24 h of growth
[18] = Patient 1, C6-8 h, 24 h of growth
[19] = Patient 1, C8-12 h, 24 h of growth
[20] = Patient 1, C12-24 h, 24 h of growth
[21] = Patient 1, Cmax × 2, 24 h of growth
[22] = Patient 2, C0-3 h, 24 h of growth
[23] = Patient 2, C0-4 h, 24 h of growth
[24] = Patient 2, C0-6 h, 24 h of growth
[25] = Patient 2, C0-8 h, 24 h of growth
[26] = Patient 2, C0-12 h, 24 h of growth
[27] = Patient 2, C0-24 h, 24 h of growth
[28] = Patient 2, C3-4 h, 24 h of growth
[29] = Patient 2, C4-6 h, 24 h of growth
[30] = Patient 2, C6-8 h, 24 h of growth
[31] = Patient 2, C8-12 h, 24 h of growth
[32] = Patient 2, C12-24 h, 24 h of growth
[33] = Patient 3, C0-3 h, 24 h of growth
[34] = Patient 3, C0-4 h, 24 h of growth
[35] = Patient 3, C0-6 h, 24 h of growth
[36] = Patient 3, C0-8 h, 24 h of growth
[37] = Patient 3, C0-12 h, 24 h of growth
[38] = Patient 3, C0-24 h, 24 h of growth
[39] = Patient 3, C3-4 h, 24 h of growth
[40] = Patient 3, C4-6 h, 24 h of growth
[41] = Patient 3, C6-8 h, 24 h of growth
[42] = Patient 3, C8-12 h, 24 h of growth
[43] = Patient 3, C12-24 h, 24 h of growth
[44] = Bacterial set #1, Meropenem (16 μg/mL)

With `CO/N=C(\C(=O)N[C@@H]1C(=O)N2C(C(=O)[O-])=C(C[N+]3(C)CCCC3)CS[C@H]12)c1csc(N)n1` [Cefepime] the “microbial growth, PA (PP alone)” value (P. aeruginosa; [6]) was “+”, the “microbial growth, RD (BM alone)” value (R. dentocariosa) was “−” and the “microbial growth, AU (BM alone)” value (A. ursingii) was “+”. For the same compound, the “microbial growth, BP (BM alone)” value (B. pumilus) was “+”, the “microbial growth, MIX (PP + MM)” value [1, 6] was “−” and the ATB efficacy [2] was “+”. For the same compound, the “Number of animals with positive microbial growth on the agar with antibiotics/total number of animals per group” value ([3]; Blood) was 4/8, the “Number of animals with positive microbial growth on the agar with antibiotics/total number of animals per group” value ([3]; Liver) was 2/8 and the “Number of animals with positive microbial growth on the agar with antibiotics/total number of animals per group” value ([3]; Lungs) was 3/8. The “Degree of primary pathogen eradication, evaluation of ABEPP” value [4, 7] was 100, the “Degree of primary pathogen eradication, evaluation of ABEPPMM” value (“Degree … of ABEPPMM” for short) [4, 7] was 100 and the “Degree of primary pathogen eradication, evaluation of ABEPP” value [4, 8] was 100. For the same compound, the “Degree … of ABEPPMM” value [4, 8] was 100, the “Degree of primary pathogen eradication, evaluation of ABEPP” value [4, 9] was 100 and the “Degree … of ABEPPMM” value [4, 9] was 100. For the same compound, the “Degree of primary pathogen eradication, evaluation of ABEPP” value [4, 10] was 100, the “Degree … of ABEPPMM” value [4, 10] was 100 and the “Degree of primary pathogen eradication, evaluation of ABEPP” value [4, 11] was 100. For the same compound, the “Degree … of ABEPPMM” value [4, 11] was 100, the “Degree of primary pathogen eradication, evaluation of ABEPP” value [4, 12] was 50 and the “Degree … of ABEPPMM” value [4, 12] was 50. For the same compound, the “Degree of primary pathogen eradication, evaluation of ABEPP” value [4, 13] was 00, the “Degree … of ABEPPMM” value [4, 13] was 00 and the “Degree of primary pathogen eradication, evaluation of ABEPP” value [4, 14] was 0. For the same compound, the “Degree … of ABEPPMM” value [4, 14] was 0, the “Degree of primary pathogen eradication, evaluation of ABEPP” value [4, 15] was 100 and the “Degree … of ABEPPMM” value [4, 15] was 100. For the same compound, the “Degree of primary pathogen eradication, evaluation of ABEPP” value [4, 16] was 100, the “Degree … of ABEPPMM” value [4, 16] was 100 and the “Degree of primary pathogen eradication, evaluation of ABEPP” value [4, 17] was 100. For the same compound, the “Degree … of ABEPPMM” value [4, 17] was 100, the “Degree of primary pathogen eradication, evaluation of ABEPP” value [4, 18] was 100 and the “Degree … of ABEPPMM” value [4, 18] was 100. For the same compound, the “Degree of primary pathogen eradication, evaluation of ABEPP” value [4, 19] was 50, the “Degree … of ABEPPMM” value [4, 19] was 00 and the “Degree of primary pathogen eradication, evaluation of ABEPP” value [4, 20] was 00. The “Degree … of ABEPPMM” value [4, 20] was 00, the “Degree of primary pathogen eradication, evaluation of ABEPP” value [4, 21] was 100 and the “Degree … of ABEPPMM” value [4, 21] was 100. For the same compound, the “Degree of primary pathogen eradication, evaluation of ABEPP” value [4, 22] was 90, the “Degree … of ABEPPMM” value [4, 22] was 90 and the “Degree of primary pathogen eradication, evaluation of ABEPP” value [4, 23] was 50. For the same compound, the “Degree … of ABEPPMM” value [4, 23] was 50, the “Degree of primary pathogen eradication, evaluation of ABEPP” value [4, 24] was 50 and the “Degree … of ABEPPMM” value [4, 24] was 50. The “Degree of primary pathogen eradication, evaluation of ABEPP” value [4, 25] was 50, the “Degree … of ABEPPMM” value [4, 25] was 50 and the “Degree of primary pathogen eradication, evaluation of ABEPP” value [4, 26] was 50. The “Degree … of ABEPPMM” value [4, 26] was 50, the “Degree of primary pathogen eradication, evaluation of ABEPP” value [4, 27] was 0 and the “Degree … of ABEPPMM” value [4, 27] was 0. For the same compound, the “Degree of primary pathogen eradication, evaluation of ABEPP” value [4, 28] was 50, the “Degree … of ABEPPMM” value [4, 28] was 50 and the “Degree of primary pathogen eradication, evaluation of ABEPP” value [4, 29] was 50. The “Degree … of ABEPPMM” value [4, 29] was 50, the “Degree of primary pathogen eradication, evaluation of ABEPP” value [4, 30] was 50 and the “Degree … of ABEPPMM” value [4, 30] was 50. For the same compound, the “Degree of primary pathogen eradication, evaluation of ABEPP” value [4, 31] was 50, the “Degree … of ABEPPMM” value [4, 31] was 50 and the “Degree of primary pathogen eradication, evaluation of ABEPP” value [4, 32] was 0. The “Degree … of ABEPPMM” value [4, 32] was 0, the “Degree of primary pathogen eradication, evaluation of ABEPP” value [4, 33] was 90 and the “Degree … of ABEPPMM” value [4, 33] was 90. For the same compound, the “Degree of primary pathogen eradication, evaluation of ABEPP” value [4, 34] was 90, the “Degree … of ABEPPMM” value [4, 34] was 90 and the “Degree of primary pathogen eradication, evaluation of ABEPP” value [4, 35] was 90. For the same compound, the “Degree … of ABEPPMM” value [4, 35] was 90, the “Degree of primary pathogen eradication, evaluation of ABEPP” value [4, 36] was 0 and the “Degree … of ABEPPMM” value [4, 36] was 0. For the same compound, the “Degree of primary pathogen eradication, evaluation of ABEPP” value [4, 37] was 0, the “Degree … of ABEPPMM” value [4, 37] was 0 and the “Degree of primary pathogen eradication, evaluation of ABEPP” value [4, 38] was 0. For the same compound, the “Degree … of ABEPPMM” value [4, 38] was 0, the “Degree of primary pathogen eradication, evaluation of ABEPP” value [4, 39] was 90 and the “Degree … of ABEPPMM” value [4, 39] was 90. The “Degree of primary pathogen eradication, evaluation of ABEPP” value [4, 40] was 90, the “Degree … of ABEPPMM” value [4, 40] was 90 and the “Degree of primary pathogen eradication, evaluation of ABEPP” value [4, 41] was 0. The “Degree … of ABEPPMM” value [4, 41] was 0, the “Degree of primary pathogen eradication, evaluation of ABEPP” value [4, 42] was 0 and the “Degree … of ABEPPMM” value [4, 42] was 0. The “Degree of primary pathogen eradication, evaluation of ABEPP” value [4, 43] was 0, the “Degree … of ABEPPMM” value [4, 43] was 0 and the “lung concentration after 8 h of administration” value ([5]; 8 h) was 23 µg/mL. For the same compound, the “lung concentration after 12 h of administration” value ([5]; 12 h) was 8 µg/mL.

With `C[C@@H](O)[C@H]1C(=O)N2C(C(=O)O)=C(S[C@@H]3CN[C@H](C(=O)N(C)C)C3)[C@H](C)[C@H]12` [Meropenem] the “microbial growth, PA (PP alone)” value (P. aeruginosa; [44]) was “+”, the “microbial growth, SA (BM alone)” value (S. anginosus) was “−” and the “microbial growth, BS (BM alone)” value (B. sonorensis) was “−”. The “microbial growth, EC (BM alone)” value (E. coli) was “+” and the “microbial growth, MIX (PP + MM)” value [1, 44] was “−”.

Source: patent publication US20240182945A1, “PRODUCTS FOR REGULATION OF EUKARYOTIC AND MICROBIAL CELLS GROWTH” (priority 2021, published 2024)
